ChEMBL document CHEMBL1132957, “Design of potent dicyclic (4-10/5-8) gonadotropin releasing hormone (GnRH) antagonists” (J Med Chem, 2000)
Calls of active or inactive are those of the source. The calls are words filed in the database; no cut-off is given here. Positions of bridges follow the written chain, without caps; N, C: chain ends. Non-standard residues stand in square brackets, D forms with d. Residues, ends and D or L forms follow the SMILES beside them. dPhe(4-Cl) = N[C@H](Cc1ccc(Cl)cc1)C(=O)O; d2Nal = N[C@H](Cc1ccc2ccccc2c1)C(=O)O; d3Pal = N[C@H](Cc1cccnc1)C(=O)O; Dab = NCC[C@H](N)C(=O)O; Dap = NC[C@H](N)C(=O)O

Key:
[1] = tested on: Rattus norvegicus; assay: Evaluated for the ovulation effects in the rat by administering the drug at the doses (10 ug); 4/6; format: functional, organism-based
[2] = molecular target: T1, Gonadotropin-releasing hormone receptor (Rattus norvegicus, UniProt P30969); assay: Competitive radioligand binding assay, in human HEK293 cells stably transfected with the rat Gonadotropin-releasing hormone receptor; format: cell-based
T1 sequence (P30969 whole entry): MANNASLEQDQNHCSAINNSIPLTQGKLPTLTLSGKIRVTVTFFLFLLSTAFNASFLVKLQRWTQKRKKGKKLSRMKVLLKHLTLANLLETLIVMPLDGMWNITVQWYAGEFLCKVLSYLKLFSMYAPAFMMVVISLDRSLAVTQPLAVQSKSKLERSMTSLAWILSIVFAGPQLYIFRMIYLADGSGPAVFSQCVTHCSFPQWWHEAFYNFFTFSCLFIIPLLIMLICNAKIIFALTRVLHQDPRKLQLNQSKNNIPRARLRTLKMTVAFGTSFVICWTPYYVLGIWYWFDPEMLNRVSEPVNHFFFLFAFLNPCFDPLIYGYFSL

[3] = tested on: Rattus norvegicus; assay: Evaluated for the ovulation effects in the rat by administering the drug at the doses (5 ug); 3/3; format: functional, organism-based
[4] = tested on: Rattus norvegicus; assay: Evaluated for the ovulation effects in the rat by administering the drug at the doses (25 ug); 0/5; format: functional, organism-based
[5] = tested on: Rattus norvegicus; assay: Evaluated for the ovulation effects in the rat by administering the drug at the doses (2.5 ug); 2/8
[6] = tested on: Rattus norvegicus; assay: Evaluated for the ovulation effects in the rat by administering the drug at the doses (5.0 ug); 0/6; format: functional, organism-based
[7] = tested on: Rattus norvegicus; assay: Evaluated for the ovulation effects in the rat by administering the drug at the doses (10 ug); 1/6; format: functional, organism-based
[8] = tested on: Rattus norvegicus; assay: Evaluated for the ovulation effects in the rat by administering the drug at the doses (25 ug); 0/3; format: functional, organism-based
[9] = tested on: Rattus norvegicus; assay: Evaluated for the ovulation effects in the rat by administering the drug at the doses (2.5 ug); 14/16; format: functional, organism-based
[10] = tested on: Rattus norvegicus; assay: Evaluated for the ovulation effects in the rat by administering the drug at the doses (500 ug); 3/8; format: functional, organism-based
[11] = tested on: Rattus norvegicus; assay: Evaluated for the ovulation effects in the rat by administering the drug at the doses (100 ug); 5/5; format: functional, organism-based
[12] = tested on: Rattus norvegicus; assay: Evaluated for the ovulation effects in the rat by administering the drug at the doses (25 ug); 0/8; format: functional, organism-based
[13] = tested on: Rattus norvegicus; assay: Evaluated for the ovulation effects in the rat by administering the drug at the doses (10 ug); 5/5; format: functional, organism-based
[14] = tested on: Rattus norvegicus; assay: Evaluated for the ovulation effects in the rat by administering the drug at the doses (25 ug); 0/4; format: functional, organism-based
[15] = tested on: Rattus norvegicus; assay: Evaluated for the ovulation effects in the rat by administering the drug at the doses (50 ug); 0/7; format: functional, organism-based
[16] = tested on: Rattus norvegicus; assay: Evaluated for the ovulation effects in the rat by administering the drug at the doses (25 ug); 4/5; format: functional, organism-based

SMILES: CC(=O)N[C@H](Cc1ccc2ccccc2c1)C(=O)N[C@H](Cc1ccc(Cl)cc1)C(=O)N[C@H](Cc1cccnc1)C(=O)N[C@H]1CC(=O)NC[C@@H](C(N)=O)NC(=O)[C@@H]2CCCN2C(=O)[C@@H]2CCNC(=O)CNC(=O)C[C@H](NC1=O)C(=O)N[C@H](CCCN=C(N)N)C(=O)N[C@@H](CC(C)C)C(=O)N2
- Activity [1]: Weak activity
- Ki [2]: 0.35 nM
- Activity [3]: inactive
- Activity [4]: Active

SMILES: CC(=O)N[C@H](Cc1ccc2ccccc2c1)C(=O)N[C@H](Cc1ccc(Cl)cc1)C(=O)N[C@H](Cc1cccnc1)C(=O)N[C@H]1CC(=O)NC[C@@H](C(N)=O)NC(=O)[C@@H]2CCCN2C(=O)[C@@H]2CCNC(=O)[C@H](Cc3ccc(Cl)cc3)NC(=O)CC[C@H](NC1=O)C(=O)N[C@H](CCCN=C(N)N)C(=O)N[C@@H](CC(C)C)C(=O)N2
- Ki [2]: 0.23 nM
- Activity [5]: Weak activity
- Activity [6]: Active

SMILES: CC(=O)N[C@H](Cc1ccc2ccccc2c1)C(=O)N[C@H](Cc1ccc(Cl)cc1)C(=O)N[C@H](Cc1cccnc1)C(=O)N[C@H]1CC(=O)NC[C@@H](C(N)=O)NC(=O)[C@@H]2CCCN2C(=O)[C@@H]2CCNC(=O)CNC(=O)CC[C@H](NC1=O)C(=O)N[C@H](CCCN=C(N)N)C(=O)N[C@@H](CC(C)C)C(=O)N2 (Ac-[d2Nal][dPhe(4-Cl)][d3Pal]DE[dR]L[Dab]P[Dap]-NH2; lactam 4-10; linker 5-8 via G)
- Activity [7]: Weak activity
- Activity [8]: Active
- Ki [2]: 0.16 nM
- Activity [9]: Weak activity

SMILES: CC(=O)N[C@H](Cc1ccc2ccccc2c1)C(=O)N[C@H](Cc1ccc(Cl)cc1)C(=O)N[C@H](Cc1cccnc1)C(=O)N[C@H]1CC(=O)NC[C@@H](C(N)=O)NC(=O)[C@@H]2CCCN2C(=O)[C@@H]2CCNC(=O)[C@@H](Cc3ccccc3)NC(=O)CC[C@H](NC1=O)C(=O)N[C@H](CCCN=C(N)N)C(=O)N[C@@H](CC(C)C)C(=O)N2
- Activity [10]: Weak activity
- Activity [11]: inactive
- Ki [2]: 120 nM

SMILES: CC(=O)N[C@H](Cc1ccc2ccccc2c1)C(=O)N[C@H](Cc1ccc(Cl)cc1)C(=O)N[C@H](Cc1cccnc1)C(=O)N[C@H]1CC(=O)NC[C@@H](C(N)=O)NC(=O)[C@@H]2CCCN2C(=O)[C@@H]2CCCNC(=O)[C@H](Cc3ccccc3)NC(=O)CC[C@H](NC1=O)C(=O)N[C@H](CCCN=C(N)N)C(=O)N[C@@H](CC(C)C)C(=O)N2
- Ki [2]: 0.27 nM
- Activity [12]: Active
- Activity [13]: inactive

SMILES: CC(=O)N[C@H](Cc1ccc2ccccc2c1)C(=O)N[C@H](Cc1ccc(Cl)cc1)C(=O)N[C@H](Cc1cccnc1)C(=O)N[C@H]1CC(=O)NC[C@@H](C(N)=O)NC(=O)[C@@H]2CCCN2C(=O)[C@@H]2CCNC(=O)[C@H](Cc3ccccc3)NC(=O)CC[C@H](NC1=O)C(=O)N[C@H](CCCNC(N)=O)C(=O)N[C@@H](CC(C)C)C(=O)N2
- Ki [2]: 0.2 nM
- Activity [13]: inactive
- Activity [14]: Active

SMILES: CC[C@H](NC(C)=O)C(=O)N[C@@H](Cc1ccc(Cl)cc1)C(=O)N[C@@H](Cc1c[nH]c2ccccc12)C(=O)N[C@@H](CC(=O)O)C(=O)N[C@@H]1CCC(=O)NCCCC[C@@H](C(=O)N2CCC[C@@H]2C(=O)N[C@@H](C)C(N)=O)NC(=O)[C@H](CC(C)C)NC(=O)[C@@H](CCCN=C(N)N)NC1=O (stereo in doubt; 13)
- Activity [15]: Active
- Activity [16]: Weak activity
